Experimental data reported in the supplement of paper PMC10307832.

Columns and labels:
Assay in all cases: relative viability (nuclei count vs DMSO), 5 days (fraction); higher = more cells survive
[1] = compound: CC(=O)Nc1cccc(-n2c(=O)n(C3CC3)c(=O)c3c(Nc4ccc(I)cc4F)n(C)c(=O)c(C)c32)c1 [Trametinib] + CC1(C)CCC(c2ccc(Cl)cc2)=C(CN2CCN(c3ccc(C(=O)NS(=O)(=O)c4ccc(N[C@H](CCN5CCOCC5)CSc5ccccc5)c(S(=O)(=O)C(F)(F)F)c4)cc3)CC2)C1 [Navitoclax] (partner 0.5 µM)
Method in brief: (§1)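 Nuclei were stained with Hoechst during a one-step fixation (final 0.05% Triton X-100, 1% formaldehyde, 1 ug/ml Hoechst) carried out 5 days after dosing, then counted on 4× images. The cells, lung cancer lines in 1536-well plates, had been dosed by pin tool the day after seeding with one drug alone or a fixed anchor-drug dose plus five library-drug doses (not always all listed) in √10 steps. Relative viability is the nuclei count in treated wells divided by that in vehicle wells, and each value is the median of duplicate plates.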

[2] = compound: CC(=O)Nc1cccc(-n2c(=O)n(C3CC3)c(=O)c3c(Nc4ccc(I)cc4F)n(C)c(=O)c(C)c32)c1 [Trametinib] + COc1cc2c(Oc3ccc(NC(=O)C4(C(=O)Nc5ccc(F)cc5)CC4)cc3F)ccnc2cc1OCCCN1CCOCC1 [Foretinib] (partner 0.25 µM)
Method in brief: as §1

[3] = compound: CN1C=C(C2=CC=CC=C21)/C=C\3/C4=C(C=CC=N4)NC3=O + Cc1cc(Nc2cc(N3CCN(C)CC3)nc(Sc3ccc(NC(=O)C4CC4)cc3)n2)n[nH]1 [Tozasertib] (partner 0.1 µM)
Method in brief: as §1

[4] = compound: CN1C=C(C2=CC=CC=C21)/C=C\3/C4=C(C=CC=N4)NC3=O + Cc1nc(NC(=O)N2CCC[C@H]2C(N)=O)sc1-c1ccnc(C(C)(C)C(F)(F)F)c1 [Alpelisib] (partner 2 µM)
Method in brief: as §1

In the case of NCI-H1915, the relative viability ([1]; first compound 0.0025 µM) is reported as 0.799, the relative viability ([1]; first compound 0.007906 µM) is reported as 0.79 and the relative viability ([1]; first compound 0.025 µM) is reported as 0.681. It also gave a relative viability ([1]; first compound 0.07906 µM) of 0.719, a relative viability ([1]; first compound 0.25 µM) of 0.217 and a relative viability ([2]; first compound 0.0025 µM) of 1.11. The relative viability ([2]; first compound 0.007906 µM) was 0.781, the relative viability ([2]; first compound 0.025 µM) was 0.538 and the relative viability ([2]; first compound 0.07906 µM) was 0.596. The relative viability ([2]; first compound 0.25 µM) was 0.298, the relative viability ([3]; first compound 0.02 µM) was 0.385 and the relative viability ([3]; first compound 0.06325 µM) was 0.432. The relative viability ([3]; first compound 0.2 µM) was 0.482, the relative viability ([3]; first compound 0.6325 µM) was 0.424 and the relative viability ([3]; first compound 2 µM) was 0.484. For the same cell line, the relative viability ([4]; first compound 0.02 µM) was 1.03, the relative viability ([4]; first compound 0.06325 µM) was 1.1 and the relative viability ([4]; first compound 0.2 µM) was 1.08. The relative viability ([4]; first compound 0.6325 µM) was 1.18 and the relative viability ([4]; first compound 2 µM) was 1.04.
Cell Line NCI-H3122 has a relative viability ([1]; first compound 0.0025 µM) of 0.937, a relative viability ([1]; first compound 0.007906 µM) of 0.867 and a relative viability ([1]; first compound 0.025 µM) of 0.508. It also gave a relative viability ([1]; first compound 0.07906 µM) of 0.548, a relative viability ([1]; first compound 0.25 µM) of 0.435 and a relative viability ([2]; first compound 0.0025 µM) of 0.895. It also gave a relative viability ([2]; first compound 0.007906 µM) of 0.769, a relative viability ([2]; first compound 0.025 µM) of 0.293 and a relative viability ([2]; first compound 0.07906 µM) of 0.251. For the same cell line, the relative viability ([2]; first compound 0.25 µM) was 0.159, the relative viability ([3]; first compound 0.02 µM) was 0.37 and the relative viability ([3]; first compound 0.06325 µM) was 0.343. For the same cell line, the relative viability ([3]; first compound 0.6325 µM) was 0.398, the relative viability ([3]; first compound 2 µM) was 0.49 and the relative viability ([4]; first compound 0.02 µM) was 0.727. It also gave a relative viability ([4]; first compound 0.06325 µM) of 0.764, a relative viability ([4]; first compound 0.2 µM) of 0.722 and a relative viability ([4]; first compound 0.6325 µM) of 0.802. The relative viability ([4]; first compound 2 µM) was 1.
For NCI-H1993, the relative viability ([1]; first compound 0.0025 µM) was 0.794, the relative viability ([1]; first compound 0.007906 µM) was 0.748 and the relative viability ([1]; first compound 0.025 µM) was 0.65. The relative viability ([1]; first compound 0.07906 µM) was 0.764, the relative viability ([1]; first compound 0.25 µM) was 0.774 and the relative viability ([2]; first compound 0.0025 µM) was 0.657. It also gave a relative viability ([2]; first compound 0.007906 µM) of 0.616, a relative viability ([2]; first compound 0.025 µM) of 0.678 and a relative viability ([2]; first compound 0.07906 µM) of 0.663. It also gave a relative viability ([2]; first compound 0.25 µM) of 0.661, a relative viability ([3]; first compound 0.02 µM) of 0.565 and a relative viability ([3]; first compound 0.06325 µM) of 0.565. It also gave a relative viability ([3]; first compound 0.2 µM) of 0.552, a relative viability ([3]; first compound 0.6325 µM) of 0.652 and a relative viability ([3]; first compound 2 µM) of 0.559. It also gave a relative viability ([4]; first compound 0.02 µM) of 0.631, a relative viability ([4]; first compound 0.06325 µM) of 0.653 and a relative viability ([4]; first compound 0.2 µM) of 0.678. For the same cell line, the relative viability ([4]; first compound 0.6325 µM) was 0.736 and the relative viability ([4]; first compound 2 µM) was 0.698.
NCI-H2405 gave a relative viability ([1]; first compound 0.0025 µM) of 0.732, a relative viability ([1]; first compound 0.007906 µM) of 0.515 and a relative viability ([1]; first compound 0.025 µM) of 0.48. It also gave a relative viability ([1]; first compound 0.07906 µM) of 0.423, a relative viability ([1]; first compound 0.25 µM) of 0.305 and a relative viability ([2]; first compound 0.0025 µM) of 1.08. The relative viability ([2]; first compound 0.007906 µM) was 0.874, the relative viability ([2]; first compound 0.025 µM) was 0.903 and the relative viability ([2]; first compound 0.07906 µM) was 0.72. The relative viability ([2]; first compound 0.25 µM) was 0.563, the relative viability ([3]; first compound 0.02 µM) was 0.742 and the relative viability ([3]; first compound 0.06325 µM) was 0.717. It also gave a relative viability ([3]; first compound 0.2 µM) of 0.67, a relative viability ([3]; first compound 0.6325 µM) of 0.721 and a relative viability ([3]; first compound 2 µM) of 0.731. For the same cell line, the relative viability ([4]; first compound 0.02 µM) was 0.654, the relative viability ([4]; first compound 0.06325 µM) was 0.776 and the relative viability ([4]; first compound 0.2 µM) was 0.769. It also gave a relative viability ([4]; first compound 0.6325 µM) of 0.842 and a relative viability ([4]; first compound 2 µM) of 0.7.
